Results reported in US20210347709A1, “RADIOFLUORINATED GPC3-BINDING PEPTIDES FOR PET IMAGING OF HEPATOCELLULAR CARCINOMA” (University of Southern California, priority 2020, published 2021).
Where two headings read alike, the source gives them in different places.

Key:
[1] = Ex vivo biodistribution in HepG2 tumor bearing nude mice; details: both sexes, BALB/c nude, mouse, iv, 1.85 MBq, total radioactivity, 1 h post-injection, gamma counting
Protocol: (§1) All animal experiments were conducted according to the guideline of the Nanfang Hospital Animal Ethics Committee at the Southern Medical University. Male or female BALB/c nude mice (about 4-6 weeks old) were obtained from the Laboratory Animal Center at Southern Medical University. The HepG2 and McA-RH7777 HCC xenografts were established by subcutaneous injection of 1×10^6 tumor cells into the left shoulder of nude mice. The animals were used for in vivo studies when the tumors reached a size of 0.5-1 cm in diameter (4-6 weeks after inoculation).
(§2) Ex vivo biodistribution was evaluated at 60 min after the tail vein injection of 1.85 MBq of Al[^18F]F-GP2076 or Al[^18F]F-GP2633. Mice were euthanized and dissected. Major tissues and organs were collected and weighed wet. The radioactivity in the tissues and organs was measured using a gamma counter. The results were presented as % ID/g. For each animal, the radioactivity of the tissue and organ samples was calibrated with a known aliquot of the injected activity. Mean uptake (% ID/g) for a group of animals was calculated with standard deviations.

[2] = system: HepG2 tumor; test: as above; details: 1 h post-injection, gamma counting
Protocol: as §1, §2

[3] = MicroPET/CT imaging and biodistribution, McA-RH7777 tumor model; format: in vivo, nude mice; details: both sexes, BALB/c nude, mouse, iv, 5.55 MBq, total radioactivity; for tissue to tissue ratio at 0.5 h / tissue to tissue ratio at 1 h / tissue to tissue ratio at 2 h: McA-RH7777 (GPC3−) tumor bearing mice; for tissue to tissue ratio at 0.5 h / tissue uptake at 0.5 h: 30 min; for tissue to tissue ratio at 1 h / tissue uptake at 1 h: 60 min; for tissue uptake at 0.5 h / tissue uptake at 1 h / tissue uptake at 2 h: McA-RH7777 (GPC3−) tumor model, PET; for tissue uptake at 2 h / tissue to tissue ratio at 2 h: 120 min
Protocol: (§3) MicroPET/CT Imaging and Biodistribution. MicroPET/CT scans were carried out using a Siemens Inveon PET/CT scanner (Siemens, Germany). Tumor-bearing mice (n=3/group) were intravenously injected with 5.55 MBq of Al[^18F]F-GP2076 or Al[^18F]F-GP2633 under isoflurane anesthesia. A ten-minute static PET scan for each animal was acquired at 30, 60, and 120 min after the injection. 3-Dimensional ordered subset expectation maximization (3D-OSEM) algorithm was used for the PET reconstruction, and CT was applied for attenuation correction. Detailed procedures for the microPET/CT imaging and biodistribution are provided in ESM.
as §1
(§4) Inveon Research Workplace (IRW) 3.0 software (Siemens, Germany) was used to measure the regions of interest (ROIs) determined by superimposing the ellipsoid volume of interest (VOI) on the target tissues. The radioactivity concentrations were measured by the mean pixel intensity within each VOI and converted to dose/ml using a calibration constant. Assuming the tissue density of 1 g/ml, the ROI was then converted to dose per gram and normalized as the percent injected dose per gram (% ID/g). Tumor-to-nontarget uptake ratios, including tumor-to-muscle (T/M), tumor-to-liver (T/L), and tumor-to-kidneys (T/K) ratios, were calculated by dividing the radioactivity uptake in tumor by that in the corresponding normal tissue or organ.

[4] = system: GPC3-negative McA-RH7777 tumor; test: as above; format: in vivo, nude mice; details: for Tumor-to-muscle (T/M) uptake ratio: McA-RH7777 (GPC3−) tumor bearing mice; for Kidneys uptake / Liver uptake / Tumor uptake: McA-RH7777 (GPC3−) tumor model, PET; for Tumor uptake: decay-corrected
Protocol: as §3, §1, §4

[5] = McA-RH7777 tumor / muscle, read-out: Tumor-to-muscle (T/M) uptake ratio
[6] = intestine, read-out: Intestinal uptake
[7] = decay-corrected, read-out: Tumor uptake
[8] = kidneys, read-out: Kidneys uptake
[9] = muscle, read-out: Muscle uptake
[10] = tumor / kidneys, read-out: Tumor-to-kidneys (T/K) uptake ratio
[11] = tumor / liver, read-out: Tumor-to-liver (T/L) uptake ratio

CC(C)C[C@H](NC(=O)[C@H](CCCNC(=N)N)NC(=O)[C@H](CC(N)=O)NC(=O)[C@H](CC(=O)O)NC(=O)[C@H](CCCNC(=N)N)NC(=O)CNC(=O)CNC(=O)CNC(=S)Nc1ccc(CC2CN(CC(=O)O)CCN(CC(=O)O)CCN2CC(=O)O)cc1)C(=O)N[C@@H](CC(N)=O)C(=O)N[C@H](C(=O)NCC(=O)NCC(=O)N[C@H](C(=O)N[C@@H](Cc1ccc(O)cc1)C(=O)N[C@@H](Cc1ccccc1)C(=O)N[C@@H](CC(C)C)C(=O)N[C@H](C(=O)N[C@H](C(=O)N[C@@H](CCCNC(=N)N)C(=O)N[C@@H](CCC(N)=O)C(=O)O)[C@@H](C)O)[C@@H](C)O)[C@@H](C)O)C(C)C (single isomer, unassigned) [Al[^18F]F-GP2633]
tissue uptake at 1 h ([1]; HepG2 tumor, read-out: HepG2 Tumor uptake, ex vivo biodistribution): 1.96 ± 0.29 %ID/g | tissue uptake at 1 h ([1]; blood, read-out: Blood uptake, ex vivo biodistribution): 0.45 ± 0.12 %ID/g | tissue uptake at 1 h ([1]; bone, read-out: Bone uptake, ex vivo biodistribution): 0.36 ± 0.08 %ID/g | tissue uptake at 1 h ([1]; brain, read-out: Brain uptake, ex vivo biodistribution): 0.12 ± 0.12 %ID/g | tissue uptake at 1 h ([1]; heart, read-out: Heart uptake, ex vivo biodistribution): 0.39 ± 0.27 %ID/g | tissue uptake at 1 h ([1]; kidneys, read-out: Kidneys uptake, ex vivo biodistribution): 37 ± 4.7 %ID/g | tissue uptake at 1 h ([1]; liver, read-out: Liver uptake, ex vivo biodistribution): 0.97 ± 0.07 %ID/g | tissue uptake at 1 h ([1]; muscle, read-out: Muscle uptake, ex vivo biodistribution): 0.31 ± 0.05 %ID/g | HepG2 Tumor uptake, ex vivo biodistribution [2]: 1.96±0.29 % ID/g | Liver uptake, ex vivo biodistribution [2]: 0.97±0.07 % ID/g | tissue to tissue ratio at 0.5 h [3, 5]: 3.87 ± 1.97 | tissue to tissue ratio at 1 h [3, 5]: 6.2 ± 2.67 | tissue uptake at 0.5 h ([3]; bone, read-out: Bone uptake): 1.04 %ID/g | tissue uptake at 1 h ([3]; bone, read-out: Bone uptake): 0.8 %ID/g | tissue uptake at 2 h ([3]; bone, read-out: Bone uptake): 0.56 %ID/g | tissue uptake at 0.5 h ([3]; brain, read-out: Brain uptake): 0.78 %ID/g | tissue uptake at 1 h ([3]; brain, read-out: Brain uptake): 0.31 %ID/g | tissue uptake at 2 h ([3]; brain, read-out: Brain uptake): 0.22 %ID/g | tissue uptake at 0.5 h ([3]; heart, read-out: Heart uptake): 1.4 %ID/g | tissue uptake at 1 h ([3]; heart, read-out: Heart uptake): 1 %ID/g | tissue uptake at 2 h ([3]; heart, read-out: Heart uptake): 0.47 %ID/g | tissue uptake at 0.5 h [3, 6]: 1.43 %ID/g | tissue uptake at 1 h [3, 6]: 1.03 %ID/g | tissue uptake at 2 h [3, 6]: 0.65 %ID/g | tissue uptake at 0.5 h [3, 7]: 1.75 %ID/g | tissue uptake at 1 h [3, 7]: 1.64 %ID/g | tissue uptake at 2 h [3, 7]: 0.66 %ID/g | tissue uptake at 0.5 h [3, 8]: 37.5 %ID/g | tissue uptake at 1 h [3, 8]: 35.4 %ID/g | tissue uptake at 2 h [3, 8]: 25.7 %ID/g | tissue uptake at 0.5 h ([3]; liver, read-out: Liver uptake): 1.52 %ID/g | tissue uptake at 1 h ([3]; liver, read-out: Liver uptake): 1.33 %ID/g | tissue uptake at 2 h ([3]; liver, read-out: Liver uptake): 0.88 %ID/g | tissue uptake at 0.5 h ([3]; lung, read-out: Lung uptake): 0.93 %ID/g | tissue uptake at 1 h ([3]; lung, read-out: Lung uptake): 0.74 %ID/g | tissue uptake at 2 h ([3]; lung, read-out: Lung uptake): 0.49 %ID/g | tissue uptake at 0.5 h [3, 9]: 0.53 %ID/g | tissue uptake at 1 h [3, 9]: 0.31 %ID/g | tissue uptake at 2 h [3, 9]: 0.2 %ID/g | tissue to tissue ratio at 0.5 h [3, 10]: 0.05 ± 0.004 | tissue to tissue ratio at 1 h [3, 10]: 0.05 ± 0.002 | tissue to tissue ratio at 2 h [3, 10]: 0.03 ± 0.004 | tissue to tissue ratio at 0.5 h [3, 11]: 1.15 ± 0.09 | tissue to tissue ratio at 1 h [3, 11]: 1.23 ± 0.05 | tissue to tissue ratio at 2 h [3, 11]: 0.78 ± 0.16 | tissue to tissue ratio at 2 h ([3]; tumor / muscle, read-out: Tumor-to-muscle (T/M) uptake ratio): 5.5 ± 3.65 | Tumor-to-muscle (T/M) uptake ratio ([4]; 30 min): 3.87±1.97 | Tumor-to-muscle (T/M) uptake ratio ([4]; 60 min): 6.20±2.67 | Kidneys uptake ([4]; 30 min): 37.47 ± 2.57 % ID/g | Liver uptake ([4]; 30 min): 1.52 ± 0.11 % ID/g | Tumor uptake ([4]; 30 min): 1.75±0.05 % ID/g | Kidneys uptake ([4]; 60 min): 35.40 ± 0.92 % ID/g | Liver uptake ([4]; 60 min): 1.33 ± 0.06 % ID/g | Tumor uptake ([4]; 60 min): 1.64±0.03 % ID/g | Kidneys uptake ([4]; 120 min): 25.70 ± 3.35 % ID/g | Liver uptake ([4]; 120 min): 0.88 ± 0.20 % ID/g | Tumor uptake ([4]; 120 min): 0.66±0.06 % ID/g
